Structures can show the parent of a compound that is named as a salt.
Tests used:
[1] = Transmembrane potential calibration of multiwell biomimetic membrane sensor in buffer; format: physicochemical; conditions: pH 8
Source text: Multiwell plates used were commercial Millipore MultiScreen VM 0.05μ plates with nitrocellulose ultrafilters located at the base of each of the 96 wells of a plate. Though the number of the wells in the examples given in the disclosure is 96, as it is in the usual multiwell plates, it is not limited by this number and can be any from 2 and above.
All filters were impregnated by isopropyl myristate or some other lipid-like substances, like long chain fatty acids, their methyl and ethyl-esters, fats, etc. After impregnation the membranes should be translucent.
Each well requires as little as 200 μl of test solution. The small well's volume and the numerous wells (96) make the plates highly suitable as a part of the drug sensor, both for pharmaceutical testing in a buffer as well as for testing in biological fluids.
The tray cover can be is used as a base tray to put the reference buffer solution. Two Ag/AgCl electrodes with the salt bridges were used to measure transmembrane potential with common multimeter. It is possible to use one Ag/AgCl element as a measuring electrode and move it from one well to another. Another option is to have different measuring electrodes in different wells and separately to collect signals from each of them separately.
Kinetics of the process was registered with electrochemical station GPES. […]

[2] = Kinetics of transmembrane potential decrease due to drug transport through the membrane; format: physicochemical
Experimental: Kinetics of the process was registered with electrochemical station GPES. 5 mM Potassium Dihydrogen Phosphate solution in water was used as a buffer, filling the tray with the volume ˜30 ml. Known concentration of a drug (usually near 10^−5 M) could be added in the buffer as the reference. Membrane resistance after impregnation was several megaohms and usually decreases after modification of the membrane with drugs. Resistance is much lower when the membrane is broken. In this case the measurements can be conducted in other wells with the same test solution.
Using electrochemical station and computer it is possible to measure potential continuously in time, and for example, to study drug transport through the membrane. In this case it is possible to have different drugs or different types of membranes in different wells.
The steady state potential can decrease in time if one waits at least several minutes due to the slow drug transport through the membrane. After the experiments the membrane could be washed, dried, reimpregnated and after preequilibration used again.
At higher concentrations of the drug after the transmembrane potential reaches its maximum value, it slowly decreases with time due to the transport of the drug (FIG. 6). At pH 8 characteristic time was of the order ˜20 s and increased at more acidic pH to ˜100 s.

albumin = albumin (Homo sapiens, UniProt P02768); assay: Transmembrane potential calibration of the multiwell sensor in albumin solution; format: physicochemical
albumin, sequence (P02768 25-609, species assumed): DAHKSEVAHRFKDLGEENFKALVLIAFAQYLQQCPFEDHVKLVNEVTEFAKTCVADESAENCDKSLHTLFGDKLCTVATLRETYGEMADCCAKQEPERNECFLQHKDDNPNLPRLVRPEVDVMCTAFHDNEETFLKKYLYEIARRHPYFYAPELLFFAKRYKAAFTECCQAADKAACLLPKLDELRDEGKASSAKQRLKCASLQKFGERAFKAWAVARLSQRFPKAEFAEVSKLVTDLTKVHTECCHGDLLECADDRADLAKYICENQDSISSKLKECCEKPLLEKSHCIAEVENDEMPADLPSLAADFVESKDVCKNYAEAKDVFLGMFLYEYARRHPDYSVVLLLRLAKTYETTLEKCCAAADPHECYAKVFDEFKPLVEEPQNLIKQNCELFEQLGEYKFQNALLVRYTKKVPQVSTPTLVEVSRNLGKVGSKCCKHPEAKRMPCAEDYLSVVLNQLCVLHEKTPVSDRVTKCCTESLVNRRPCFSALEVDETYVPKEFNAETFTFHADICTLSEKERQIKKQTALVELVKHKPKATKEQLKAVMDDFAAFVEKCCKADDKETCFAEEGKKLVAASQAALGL
Experimental: In some cases drugs concentration was measured in albumin solutions with protein concentration 0.022 g/cm^3 in buffer or Fetal Bovine Serum was used with concentration of serum albumin in the range 0.0187 g/cm^3-0.022 g/cm^3.
The base plate was filled with the buffer of reference concentration 5×10^−6 M of drug, and the wells with albumin-drug solution, with constant concentration of albumin, but varying concentration of drug.
In this case the measuring Ag/AgCl electrode was inserted into the wells with albumin solution with decreasing fenfluramine concentrations, then increasing fenfluramine concentrations, i.e. forward and backward using the same wells. The base solution was buffer. The method allows measurements of fenfluramine from 5×10^−5 to 5×10^−2M.
If different concentrations of rimantadine in albumin solution were preliminary prepared, preequilibrated and then added into the wells (method 2), a gradient was 59.9 mV per 10 fold change in drug concentration, which is similar to that with a buffer solution.
Chlorpromazine test solutions were injected into the wells and the reference solution of 5×10^−6 M Chlorpromazine in the buffer was added into the base. […] This effect is similar to the lysis of biological membranes and is related to the surface active properties of chlorpromazine. It was observed also with several other psychotropic substances, including several antidepressants. Those of the drugs which induce lysis at elevated concentrations also have nonspecific liver toxicity.

[3] = Biomimetic membrane lysis (screen for nonspecific liver toxicity); conditions: elevated drug concentration (chlorpromazine near 0.05 M, after some time)
[4] = bovine, fetal bovine serum, plasma or biological fluid
[5] = pH 7.4 buffer, pH 7.4, aqueous buffer
[6] = method 1: drug added directly into albumin solutions in the wells

Q: Which “time taken to reach the maximum potential” value [1] does the source give for `CCNC(C)Cc1cccc(C(F)(F)F)c1.Cl` (racemic) [Fenfluramine Hydrochloride, (+/−)-N-ethyl-α-methyl-m-(trifluoromethyl) phenethylamine HCl] here?
A: less then a minute

Q: And the “characteristic time of potential decrease due to transport of the drug” value ([2]; more acidic pH)?
A: ~100 s

Q: What about the “characteristic time of potential decrease due to transport of the drug” value ([2]; pH 8, higher drug concentrations (FIG. 6: 10^−3 M)) of the same molecule?
A: ~20 s

Q: And the solubility (Solubility; [4])?
A: ~10 mM

Q: And the solubility (Solubility; [5])?
A: ~50 mM

Q: For `CN(C)CCCN1c2ccccc2Sc2ccc(Cl)cc21` [Chlorpromazine Hydrochloride, 2-chloro-10-[3-dimethylaminopropyl] phenothiazine], which “potentials in buffer versus albumin solutions (drug binding property of albumin)” value (albumin; pH2, reference 5×10^−6 M drug in buffer) is on record?
A: higher with buffer than with albumin solutions

Q: Which “slope of calibration curve” value (albumin; [6]) does the source give for `CC(N)C12CC3CC(CC(C3)C1)C2.Cl` (stereo not drawn) [Rimantadine Hydrochloride, 1-(1-Adamantyl)ethylamine hydrochloride] here?
A: 19.3 mV per 10 fold change in Rimantadine concentration

Q: And the “time for the potential to reach the steady state” value (albumin; [6])?
A: at least an hr

Q: What about the “gradient of calibration curve” value (albumin; method 2: drug in albumin solution prepared, preequilibrated, then added into wells) of the same molecule?
A: 59.9 mV per 10 fold change in drug concentration

Q: What about the “membrane lysis / loss of transmembrane potential” value [3] of the same molecule?
A: did not result in the membrane lysis

Q: And the solubility (Solubility; [4])?
A: ~10 mM

Q: What about the solubility (Solubility; [5]) of the same molecule?
A: ~50 mM

Reference: patent US20090321255A1, “Drug-meter: Multiwell membrane-based potentiometric sensor for high throughput tests of drugs” (priority 2008, published 2009)
